Structures are written as SMILES.

In experiment [1] the test system is MM 1S multiple myeloma tumour cell line. In words: In vitro cytotoxicity, MTT assay, MM1S cells. It is filed as cell-based. Conditions: Homo sapiens, MM1.S, 96 hours exposure. The method, then:
(§1) The cytotoxicity studies were evaluated by MTT assay and carried out on MM 1S multiple myeloma or Z138 mantle cell lymphoma tumour cell lines. The cells are distributed onto microplates and exposed to the test compounds for 96 hours. The cell viability is then quantified by a colorimetric assay, the Microculture Tetrazolium Assay (Carmichael et. al., Cancer Res. […], 47, 936-942).
For orientation: Formazan colour is commonly taken as a measure of viable cells.

In the next experiment the target is T1, USP7 (Homo sapiens, UniProt Q93009, C315A).
T1 construct: 0.25 nM His-His-USP7 (aa208-560, [C315A]) was incubated with compound; His-His (N)
T1 sequence (Q93009 208-560 C315A): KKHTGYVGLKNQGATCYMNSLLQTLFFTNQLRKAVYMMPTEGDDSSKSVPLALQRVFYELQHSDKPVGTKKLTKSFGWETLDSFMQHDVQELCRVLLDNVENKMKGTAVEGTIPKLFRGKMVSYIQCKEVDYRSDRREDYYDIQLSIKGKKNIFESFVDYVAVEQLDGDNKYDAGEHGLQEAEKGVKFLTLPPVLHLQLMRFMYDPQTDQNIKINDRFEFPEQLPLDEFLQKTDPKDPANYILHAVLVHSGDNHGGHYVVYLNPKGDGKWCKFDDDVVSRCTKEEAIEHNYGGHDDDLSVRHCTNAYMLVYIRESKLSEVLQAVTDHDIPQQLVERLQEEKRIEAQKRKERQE
In words: Inhibition of USP7 by Fluorescence Intensity (FLINT) readings, Ubiquitin-Rhodamine-110 substrate. Conditions: 0.25 nM His-His-USP7 (aa208-560, [C315A]); compound 60 minutes at 30° C.; 500 nM Ubiquitin-Rhodamine substrate; 11-point curves. It is filed as biochemical. The method in brief: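 His-His-USP7 (aa208-560, C315A) at 0.25 nM was preincubated with compound for 60 min at 30 °C in 100 mM Bicine pH 8.0, 0.01% Triton X-100, 1 mM TCEP, 10% DMSO. 500 nM ubiquitin-rhodamine-110 was then added, with fluorescence (Ex 485/Em 535 nm) read every 3 min for 21 min. IC50 came from kinetic-rate inhibition, 11-point curves, 4-parameter fit.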

In experiment [2] the test system is Z138 mantle cell lymphoma tumour cell line. In words: In vitro cytotoxicity, MTT assay, Z138 cells. It is filed as cell-based. Conditions: Homo sapiens, Z-138; Z138 tumour cell line (underlined values); 96 hours exposure. The protocol:
as §1

In general, IC50 refers to the midpoint of a concentration-inhibition curve. A higher IC50 goes with a need for much substance. Take `O=C([C@@H]1CCCC(F)(F)[C@H]1c1ccccc1)N1CCC(O)(Cn2cnc3c(ccn3-c3ccccc3)c2=O)CC1` (relative stereo) [Example 52, 3-[[1-[trans-3,3-difluoro-2-phenyl-cyclohexanecarbonyl]-4-hydroxy-4-piperidyl]methyl]-7-phenyl-pyrrolo[2,3-d]pyrimidin-4-one]: the IC50 in experiment [1] was found to be 100 nM; against USP7, 71.8 nM.

As for `COc1ccc(-n2ccc3c(=O)n(CC4(O)CCN(C(=O)[C@@H]5CCC(F)(F)C[C@H]5c5ccccc5)CC4)cnc32)cc1` (single isomer, unassigned) [Example 34, 3-[[1-[trans-4,4-difluoro-2-phenyl-cyclohexanecarbonyl]-4-hydroxy-4-piperidyl]methyl]-7-(4-methoxyphenyl)pyrrolo[2,3-d]pyrimidin-4-one], the half-maximal inhibitory concentration (IC50) was found to be 5.66 nM in experiment [2], 24.5 nM in experiment [1] and 23.1 nM on USP7.

`O=C([C@@H]1CCCC[C@H]1c1ccccc1)N1CCC(O)(Cn2cnc3c(cnn3-c3ccccc3)c2=O)CC1` (relative stereo) [Example 19, 5-[[4-hydroxy-1-(trans-2-phenylcyclohexanecarbonyl)-4-piperidyl]methyl]-1-phenyl-pyrazolo[3,4-d]pyrimidin-4-one]: the results for the IC50 (in experiment [1]; on USP7) were 195 nM and 14.3 nM, respectively.

`O=C([C@@H]1CCCC[C@H]1n1cccc1)N1CCC(O)(Cn2cnc3c(ccn3-c3ccccc3)c2=O)CC1` (single isomer, unassigned) [Example 14, 3-[[4-hydroxy-1-[trans-2-pyrrol-1-ylcyclohexanecarbonyl]-4-piperidyl]methyl]-7-phenyl-pyrrolo[2,3-d]pyrimidin-4-one]: the IC50 in experiment [2] stood at 14.7 nM; in experiment [1] it was 6.42 nM; at USP7, 27.1 nM.

Turning to `COc1ccc(-n2ccc3c(=O)n(CC4(O)CCN(C(=O)[C@@H]5CCCC[C@H]5c5ccccc5)CC4)cnc32)cc1` (relative stereo) [Example 21, 3-[[4-hydroxy-1-(trans-2-phenylcyclohexanecarbonyl) 4-piperidyl]methyl]-7-(4-methoxyphenyl)pyrrolo[2,3-d]pyrimidin-4-one], the IC50 came out at 3.4 nM in experiment [1] and 26.9 nM on USP7.

The values are drawn from US11332472B2, “Substituted piperidines as inhibitors of ubiquitin specific protease 7” (LES LABORATOIRES SERVIER, priority 2017, dated 2022).
